Consider 3 substances from patent US10947274B1 (priority 2018, dated 2021).

Data set [1] is classed as physicochemical.
For data set [2], the target named is human α9α10 nicotinic acetylcholine receptor (nAChR) (human) (UniProt Q9UGM1). In words: cell-based or functional assay.
In data set [3] the target is α7 nAChR (Rattus norvegicus, UniProt Q05941). Particulars: cited from earlier work.
Sequence of α7 nAChR (Q05941 23-502 limits assumed): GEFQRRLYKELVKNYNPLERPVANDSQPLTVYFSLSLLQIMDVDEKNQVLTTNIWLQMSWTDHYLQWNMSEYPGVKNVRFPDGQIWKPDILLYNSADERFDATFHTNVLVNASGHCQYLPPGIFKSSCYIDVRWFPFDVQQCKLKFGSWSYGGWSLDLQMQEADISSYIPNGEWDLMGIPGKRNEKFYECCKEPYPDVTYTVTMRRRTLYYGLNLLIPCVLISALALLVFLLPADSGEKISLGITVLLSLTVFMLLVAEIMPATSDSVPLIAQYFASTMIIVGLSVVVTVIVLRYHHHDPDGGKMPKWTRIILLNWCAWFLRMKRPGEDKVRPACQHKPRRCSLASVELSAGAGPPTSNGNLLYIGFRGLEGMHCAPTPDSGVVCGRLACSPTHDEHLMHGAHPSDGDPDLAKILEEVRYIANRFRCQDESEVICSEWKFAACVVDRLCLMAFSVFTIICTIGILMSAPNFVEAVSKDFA

Sequence of human α9α10 nicotinic acetylcholine receptor (nAChR) (human) (Q9UGM1 23-479, chain 1 of 2): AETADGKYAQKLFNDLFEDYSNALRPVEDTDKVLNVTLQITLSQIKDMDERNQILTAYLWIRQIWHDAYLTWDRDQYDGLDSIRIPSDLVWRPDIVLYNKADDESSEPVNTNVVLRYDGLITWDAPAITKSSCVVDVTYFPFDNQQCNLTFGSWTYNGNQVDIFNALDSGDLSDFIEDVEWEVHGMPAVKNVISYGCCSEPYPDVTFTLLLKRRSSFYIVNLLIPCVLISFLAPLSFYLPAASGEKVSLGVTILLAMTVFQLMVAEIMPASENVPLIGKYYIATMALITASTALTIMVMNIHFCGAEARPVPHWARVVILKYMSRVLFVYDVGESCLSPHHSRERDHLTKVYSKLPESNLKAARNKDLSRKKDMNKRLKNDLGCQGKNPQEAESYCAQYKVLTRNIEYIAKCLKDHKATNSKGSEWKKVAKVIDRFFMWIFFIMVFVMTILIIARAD
Sequence of human α9α10 nicotinic acetylcholine receptor (nAChR) (human) (Q9GZZ6 25-450, chain 2 of 2, further chain): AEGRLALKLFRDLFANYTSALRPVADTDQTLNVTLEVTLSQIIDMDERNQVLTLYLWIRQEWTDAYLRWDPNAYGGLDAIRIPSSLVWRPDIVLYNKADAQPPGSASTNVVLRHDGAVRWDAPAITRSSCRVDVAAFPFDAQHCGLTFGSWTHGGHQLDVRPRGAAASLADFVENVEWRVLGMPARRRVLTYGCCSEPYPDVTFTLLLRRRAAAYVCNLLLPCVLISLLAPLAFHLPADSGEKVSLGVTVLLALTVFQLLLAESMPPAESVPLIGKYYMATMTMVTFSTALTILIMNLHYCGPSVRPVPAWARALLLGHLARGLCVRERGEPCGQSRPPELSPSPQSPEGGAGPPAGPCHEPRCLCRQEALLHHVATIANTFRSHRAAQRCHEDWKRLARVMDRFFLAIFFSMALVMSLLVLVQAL

GCCTDPRC(Cit)(I-3-Y)QCY [RgIA4]: the “area under the curve, % of the total” value in data set [1] (at 8 h) amounted to 26.3%. In data set [1] (pH 7.3), the “share of intact (globular) peptide over time” value is reported as “minority component”.

[C3Pen;14R]RgIA5 (peptide) registered an IC50 (nM), block of the acetylcholine response, voltage-clamped Xenopus oocytes in data set [2] of 0.5 nM. Turning to α-conotoxin ImI, the IC50 (usually the point on the concentration scale where inhibition reaches its midpoint) in data set [3] was 69.3 ± 15.5 nM.
